According to the CheMixHub viscosity set:
“And” between values parts separate entries of the source, which are not always exact repeats. Equal values may be shown once.

Assays:
[1] = xn = mol fraction of the nth substance listed

CC12CC3CC(C1)CC(C)(C3)C2
100 kPa
Conditions | viscosity
293.15 K | 3.779 mPa·s and 3.778 mPa·s
298.15 K | 3.371 mPa·s and 3.365 mPa·s
303.15 K | 3.027 mPa·s and 3.017 mPa·s
308.15 K | 2.747 mPa·s
313.15 K | 2.475 mPa·s
318.15 K | 2.262 mPa·s
323.15 K | 2.05 mPa·s

CC1CCCC(O)C1 (stereo unspecified)
Conditions | viscosity [mPa·s]
293.15 K, 101 kPa | 22.8

CCC(C)(C)OC
100 kPa
Conditions | viscosity [mPa·s]
293.15 K | 0.439
303.15 K | 0.415
313.15 K | 0.369
323.15 K | 0.335

CCCCCCCCO
viscosity
Conditions | 293.15 K | 298 K | 298.15 K | 303.15 K | 308 K | 308.15 K | 313 K | 313.15 K | 318.15 K | 323.15 K
100 kPa | 9.045 mPa·s and 9.2 mPa·s and 8.98 mPa·s | 7.614 mPa·s | 7.546 mPa·s and 7.67 mPa·s and 7.56 mPa·s | 6.337 mPa·s and 6.35 mPa·s | – | – | – | 4.564 mPa·s and 4.61 mPa·s and 4.585 mPa·s | – | 3.365 mPa·s and 3.38 mPa·s
101 kPa | 8.309 mPa·s and 9.185 mPa·s | – | 7.33 mPa·s and 7.3 mPa·s | – | 5.228 mPa·s | – | 4.464 mPa·s | 4.199 mPa·s and 4.691 mPa·s and 4.58 mPa·s | – | 3.464 mPa·s and 3.369 mPa·s
101.3 kPa | 9.273 mPa·s and 9.183 mPa·s | – | 7.598 mPa·s and 7.84 mPa·s | 6.102 mPa·s and 6.42 mPa·s | – | 5.403 mPa·s | – | 4.413 mPa·s and 4.661 mPa·s | 4.051 mPa·s and 3.701 mPa·s | 2.84 mPa·s
101.33 kPa | – | – | – | – | – | 5.352 mPa·s | – | – | – | 3.361 mPa·s and 3.361 mPa·s

CCn1cc[n+](C)c1.O=S(=O)([N-]S(=O)(=O)C(F)(F)F)C(F)(F)F
Conditions | viscosity
293.15 K, 100 kPa | 41.6 mPa·s and 39.2 mPa·s
297.55 K, 101 kPa | 36.3 mPa·s
298 K, 100 kPa | 29.67 mPa·s
298.15 K, 100 kPa | 33.9 mPa·s and 32.55 mPa·s
298.15 K, 101 kPa | 30.72 mPa·s and 32.3 mPa·s
298.15 K, 101.3 kPa | 32.42 mPa·s
303 K, 100 kPa | 24.82 mPa·s
303.15 K, 100 kPa | 27.68 mPa·s and 27.4 mPa·s
303.15 K, 101.3 kPa | 28.6 mPa·s
308 K, 100 kPa | 20.99 mPa·s
308.15 K, 101.3 kPa | 23.19 mPa·s
313 K, 100 kPa | 17.97 mPa·s
313.15 K, 100 kPa | 20.16 mPa·s and 19.1 mPa·s and 20.1 mPa·s
313.15 K, 101 kPa | 19.9 mPa·s and 19.26 mPa·s
313.15 K, 101.3 kPa | 19.94 mPa·s
318 K, 100 kPa | 15.57 mPa·s
318.15 K, 101.3 kPa | 17.37 mPa·s
323 K, 100 kPa | 13.28 mPa·s
323.15 K, 100 kPa | 15.34 mPa·s and 14.4 mPa·s and 15.3 mPa·s
323.15 K, 101.3 kPa | 15.34 mPa·s

NCCOCCO + O
viscosity [mPa·s], [1], 101.33 kPa
Conditions | 298.15 K | 313.15 K | 323.15 K
x1 = 0.0552 | 2.4 | 1.452 | 1.16
x1 = 0.1002 | 3.874 | 2.419 | 1.857
x1 = 0.1447 | 6.344 | 3.715 | 2.737
x1 = 0.2249 | 11.4 | 6.182 | 4.438
x1 = 0.2997 | 16.21 | 8.343 | 5.773
x1 = 0.3995 | 21.35 | 10.7 | 7.293
x1 = 0.5392 | 25.2 | 12.28 | 8.273
x1 = 0.6075 | 26.8 | 13.19 | 8.903
x1 = 0.7021 | 27.72 | 13.65 | 9.182
x1 = 0.8071 | 27.7 | 13.76 | 9.315
x1 = 0.9024 | 27.4 | 13.65 | 9.257

O=C([O-])CC(O)(CC(=O)[O-])C(=O)[O-].[NH4+].[NH4+].[NH4+] + O
viscosity, [1], 101 kPa
Conditions | 298.15 K | 308.15 K | 318.15 K
x1 = 0.004 | 0.9957 mPa·s | 0.814 mPa·s | 0.685 mPa·s
x1 = 0.007 | 1.13 mPa·s | 0.923 mPa·s | 0.7741 mPa·s
x1 = 0.01 | 1.283 mPa·s and 1.49 mPa·s | 1.048 mPa·s and 1.211 mPa·s | 0.8784 mPa·s and 1.01 mPa·s

O=S(=O)([N-]S(=O)(=O)C(F)(F)F)C(F)(F)F.OCCNCCO.[Li+] + O
viscosity [mPa·s], [1], 101 kPa
Conditions | 313.15 K | 318.15 K | 323.15 K
x1 = 0.03 | 2.3 | 1.83 | 1.52
x1 = 0.0601 | 4.57 | 3.78 | 3.28
x1 = 0.0999 | 13.16 | 10.06 | 7.95
x1 = 0.1922 | 61.51 | 40.94 | 28.08
x1 = 0.2941 | 156.6 | 98.53 | 65.24
x1 = 0.4028 | 299.2 | 187.7 | 123.7
x1 = 0.4989 | 451.2 | 285 | 192.2
x1 = 0.5999 | 629.9 | 408.1 | 281.1
x1 = 0.7015 | 835.5 | 557.5 | 393.6
x1 = 0.803 | 1078 | 736.7 | 530
x1 = 0.9011 | 1370 | 952.3 | 694.7

O=S(=O)([O-])c1ccccc1.[Na+] + O
viscosity [mPa·s], [1], 101 kPa
Conditions | x1 = 9e-05 | x1 = 0.00018 | x1 = 0.0009 | x1 = 0.0018 | x1 = 0.00448 | x1 = 0.00893 | x1 = 0.0133 | x1 = 0.0177
298.15 K | 0.898 | 0.899 | 0.915 | 0.932 | 0.98 | 1.073 | 1.17 | 1.273
318.15 K | 0.598 | 0.599 | 0.609 | 0.619 | 0.648 | 0.705 | 0.762 | 0.825

[Cl-].[Rb+] + O
[1], 310.15 K, 101 kPa
Conditions | viscosity [mPa·s]
x1 = 0.000184 | 0.6947
x1 = 0.000842 | 0.6943
x1 = 0.002695 | 0.6937
x1 = 0.003302 | 0.6937
x1 = 0.003679 | 0.6938
x1 = 0.005197 | 0.6944
x1 = 0.005988 | 0.695

CC(C)(C)N + O=C1CCCCC1
[1], 298.15 K, 101 kPa
Conditions | viscosity [mPa·s]
x2 = 0.0765 | 0.525
x2 = 0.157 | 0.607
x2 = 0.2421 | 0.702
x2 = 0.3319 | 0.787
x2 = 0.427 | 0.893
x2 = 0.5278 | 1.021
x2 = 0.6349 | 1.172
x2 = 0.7488 | 1.373
x2 = 0.8702 | 1.644

CCN(CC)CCO.Cl + OCC(O)CO
[1], 101 kPa, x1 = 0.333
Conditions | viscosity [mPa·s]
296.97 K | 433.4
298.15 K | 513.1
302.02 K | 339.9
303.15 K | 351.5
306.82 K | 263.5
308.15 K | 251.3
312.13 K | 195.5
313.15 K | 182.9
317.31 K | 153
318.15 K | 138
322.61 K | 110.5
323.15 K | 104.2

BrC(Br)Br + OCCCl
viscosity [mPa·s], [1], 101.3 kPa
Conditions | x1 = 0.099 | x1 = 0.198 | x1 = 0.301 | x1 = 0.396 | x1 = 0.498 | x1 = 0.595 | x1 = 0.702 | x1 = 0.801 | x1 = 0.896
298.15 K | 2.878 | 2.817 | 2.587 | 2.446 | 2.3 | 2.179 | 2.067 | 1.97 | 1.915
303.15 K | 2.532 | 2.487 | 2.297 | 2.191 | 2.08 | 1.982 | 1.89 | 1.825 | 1.779
308.15 K | 2.237 | 2.21 | 2.055 | 1.974 | 1.884 | 1.814 | 1.746 | 1.694 | 1.666

CCN(CC)CCO.Cl + OCCO
viscosity [mPa·s], [1], 101 kPa
Conditions | 293.15 K | 298.15 K | 303.15 K | 308.15 K | 313.15 K | 318.15 K | 323.15 K
x1 = 0.25 | 37.6 | – | 29.6 | – | 23.6 | – | 19.1
x1 = 0.333 | – | 50.45 | 40.68 | 32.04 | 26.28 | 21.97 | 18.51

CCN(CC)CCO.Cl + OCCOCCO
[1], 101 kPa, x2 = 0.75
Conditions | viscosity [mPa·s]
293.15 K | 56.09
303.15 K | 50.09
313.15 K | 35.93
323.15 K | 25.49

C=Cc1ccccc1 + c1ccccc1
viscosity [mPa·s], [1], 101 kPa
Conditions | x2 = 0.1362 | x2 = 0.2498 | x2 = 0.3047 | x2 = 0.4109 | x2 = 0.5207 | x2 = 0.5834 | x2 = 0.7114 | x2 = 0.7924 | x2 = 0.8831
298.15 K | 0.672 | 0.654 | 0.645 | 0.633 | 0.623 | 0.618 | 0.608 | 0.605 | 0.604
303.15 K | 0.629 | 0.61 | 0.6 | 0.589 | 0.577 | 0.57 | 0.56 | 0.556 | 0.555
308.15 K | 0.59 | 0.57 | 0.56 | 0.548 | 0.537 | 0.53 | 0.52 | 0.515 | 0.514
313.15 K | 0.54 | 0.518 | 0.51 | 0.499 | 0.487 | 0.48 | 0.47 | 0.466 | 0.465

CC1CCCC(O)C1 (stereo unspecified) + c1ccccc1
[1], 293.15 K, 101 kPa
Conditions | viscosity
x2 = 0.3 | 4.2 mPa·s
x2 = 0.5 | 2.1 mPa·s
x2 = 0.6 | 1.6 mPa·s
x2 = 0.7 | 1.5 mPa·s
x2 = 0.8 | 1.2 mPa·s and 1.1 mPa·s

CCC(C)(C)OC + c1ccccc1
viscosity [mPa·s], [1], 100 kPa
Conditions | x1 = 0.051 | x1 = 0.1986 | x1 = 0.2998 | x1 = 0.3995 | x1 = 0.4992 | x1 = 0.5905 | x1 = 0.6974 | x1 = 0.8012 | x1 = 0.8948 | x1 = 0.9496
293.15 K | 0.623 | 0.579 | 0.553 | 0.53 | 0.51 | 0.493 | 0.475 | 0.46 | 0.451 | 0.445
303.15 K | 0.547 | 0.513 | 0.493 | 0.475 | 0.461 | 0.449 | 0.436 | 0.427 | 0.422 | 0.418
313.15 K | 0.478 | 0.447 | 0.43 | 0.414 | 0.402 | 0.392 | 0.381 | 0.375 | 0.372 | 0.37

CCCCCCCCO + c1ccccc1
viscosity [mPa·s], [1]
Conditions | 293.15 K | 298.15 K | 303.15 K | 313.15 K | 323.15 K
100 kPa, x2 = 0.0834 | 7.415 | – | 5.248 | 3.685 | 2.768
100 kPa, x2 = 0.1711 | 6.045 | – | 4.294 | 2.932 | 2.235
100 kPa, x2 = 0.2512 | 5.033 | – | 3.532 | 2.393 | 1.821
100 kPa, x2 = 0.3602 | 3.894 | – | 2.682 | 1.807 | 1.365
100 kPa, x2 = 0.4552 | 3.069 | – | 2.085 | 1.4 | 1.062
100 kPa, x2 = 0.5612 | 2.333 | – | 1.545 | 1.076 | 0.818
100 kPa, x2 = 0.6483 | 1.824 | – | 1.236 | 0.904 | 0.7
100 kPa, x2 = 0.7524 | 1.334 | – | 0.957 | 0.736 | 0.594
100 kPa, x2 = 0.8537 | 0.975 | – | 0.736 | 0.608 | 0.516
100 kPa, x2 = 0.9502 | 0.748 | – | 0.612 | 0.525 | 0.455
101.33 kPa, x1 = 0.2 | – | 0.863 | – | – | 0.57
